Experimental data taken from ChEMBL document CHEMBL1152190, “Synthesis of spiro-1,2-dioxolanes and their activity against Plasmodium falciparum” (Bioorg Med Chem Lett, 2008).
pEC50: −log10 of the molar value. The source made the active and inactive calls. The calls are words filed in the database; no cut-off is given here.

Experiments:
Plasmodium falciparum [1] = experiment: Antimalarial activity as reduced parasitaemia after 72 hrs against chloroquine-sensitive Plasmodium falciparum 3D7 in human erythrocytes by DAPI stain; format: functional, organism-based; settings: 3D7, 72 h
Plasmodium falciparum [2] = experiment: Antimalarial activity as reduced parasitaemia after 72 hrs against chloroquine-resistant Plasmodium falciparum Dd2 in human erythrocytes by DAPI stain; format: functional, organism-based; settings: Dd2, 72 h
Heme = experiment: Inhibition of heme crystallization by parasite-independent assay; format: functional
Plasmodium falciparum [3] = experiment: Antimalarial activity as reduced parasitaemia after 72 hrs against chloroquine-resistant Plasmodium falciparum 7G8 in human erythrocytes by DAPI stain; format: functional, organism-based; settings: 7G8, 72 h
Plasmodium falciparum [4] = experiment: Antimalarial activity as reduced parasitaemia after 72 hrs against chloroquine-resistant Plasmodium falciparum FCB in human erythrocytes by DAPI stain; format: functional, organism-based
Plasmodium falciparum [5] = experiment: Antimalarial activity as reduced parasitaemia after 72 hrs against chloroquine-resistant Plasmodium falciparum 106/1 in human erythrocytes by DAPI stain; format: functional, organism-based; settings: 106/1, 72 h
Plasmodium falciparum [6] = experiment: Antimalarial activity against Plasmodium falciparum K1; format: functional, organism-based
Plasmodium falciparum [7] = experiment: Antimalarial activity against Plasmodium falciparum NF54; format: functional, organism-based

CC1(CCOCc2ccccc2)CC2(CCCCC2)OO1 (stereo unspecified)
pEC50 (Plasmodium falciparum [1]): 6.85
pEC50 (Plasmodium falciparum [2]): 6.84
Activity (Heme): inactive

CC1CCCC2(C1)CC(C)(CC(=O)O)OO2 (mixture of isomers)
pEC50 (Plasmodium falciparum [1]): < 6.00
pEC50 (Plasmodium falciparum [2]): < 6.00

NCCNc1ccnc2cc(Cl)ccc12
pEC50 (Plasmodium falciparum [1]): 7.24
pEC50 (Plasmodium falciparum [2]): 6.81
Activity (Heme): inactive

CC1CCCC2(C1)CC(C)(CCOCc1ccccc1)OO2 (mixture of isomers)
pEC50 (Plasmodium falciparum [1]): 7.04
pEC50 (Plasmodium falciparum [2]): 6.82
Activity (Heme): inactive

CC1(CC(=O)NCc2ccc(-c3ccccc3)cc2)CC2(CCCCC2)OO1 (stereo unspecified)
pEC50 (Plasmodium falciparum [1]): 7.00
pEC50 (Plasmodium falciparum [2]): 7.11
Activity (Heme): inactive

C[C@@H]1CC[C@H]2[C@@H](C)C(=O)O[C@@H]3O[C@@]4(C)CC[C@@H]1[C@]32OO4 [ARTEMISININ]
pEC50 (Plasmodium falciparum [1]): 8.40
pEC50 (Plasmodium falciparum [2]): 8.40
pEC50 (Plasmodium falciparum [3]): 7.32
pEC50 (Plasmodium falciparum [4]): 8.10
pEC50 (Plasmodium falciparum [5]): 7.89

CC1CCCC2(C1)CC(C)(CCO)OO2 (mixture of isomers)
pEC50 (Plasmodium falciparum [1]): 6.62
pEC50 (Plasmodium falciparum [2]): 6.83
Activity (Heme): inactive

CCNC(=O)CC1(C)CC2(CCCCC2)OO1 (stereo unspecified)
pEC50 (Plasmodium falciparum [1]): 6.31
pEC50 (Plasmodium falciparum [2]): 7.00
pEC50 (Plasmodium falciparum [3]): 7.08
pEC50 (Plasmodium falciparum [4]): 6.45
pEC50 (Plasmodium falciparum [5]): 6.85

O=C(CN1CCC2(CCCCC2)C1)NCCNc1ccnc2cc(Cl)ccc12
pEC50 (Plasmodium falciparum [1]): 7.16
pEC50 (Plasmodium falciparum [2]): 7.11
Activity (Heme): inactive
pEC50 (Plasmodium falciparum [3]): 7.04
pEC50 (Plasmodium falciparum [4]): 7.10
pEC50 (Plasmodium falciparum [5]): 7.28

CC(C)(N)CNC(=O)CC1(C)CC2(CCCCC2)OO1 (stereo unspecified)
pEC50 (Plasmodium falciparum [1]): 7.21
pEC50 (Plasmodium falciparum [2]): 6.97
Activity (Heme): inactive

CC1CCC2(CC1)CC(C)(CCOCc1ccccc1)OO2 (mixture of isomers)
pEC50 (Plasmodium falciparum [1]): 6.26
pEC50 (Plasmodium falciparum [2]): 7.23
Activity (Heme): inactive

CC1(CC(=O)NCCNc2ccnc3cc(Cl)ccc23)CC2(CCCCC2)OO1 (stereo unspecified)
pEC50 (Plasmodium falciparum [1]): 8.30
pEC50 (Plasmodium falciparum [2]): 8.22
Activity (Heme): inactive
pEC50 (Plasmodium falciparum [3]): 8.10
pEC50 (Plasmodium falciparum [4]): 7.80
pEC50 (Plasmodium falciparum [5]): 7.66

C1CCC2(CC1)CC1(CCCCC1)OO2
pEC50 (Plasmodium falciparum [6]): 6.71
pEC50 (Plasmodium falciparum [7]): 6.28

CC(C)(CO)CC1(C)C[C@]2(CC[C@H](C)CC2)OO1 (stereo partly specified)
pEC50 (Plasmodium falciparum [1]): 6.48
pEC50 (Plasmodium falciparum [2]): 6.05

CC1(CC(=O)NCC2C3CC4CC(C3)CC2C4)CC2(CCCCC2)OO1 (stereo unspecified)
pEC50 (Plasmodium falciparum [1]): 7.09
pEC50 (Plasmodium falciparum [2]): 7.24
Activity (Heme): inactive

CCN(CC)CCCC(C)Nc1ccnc2cc(Cl)ccc12 (stereo unspecified) [CHLOROQUINE]
pEC50 (Plasmodium falciparum [1]): 8.15
pEC50 (Plasmodium falciparum [2]): 7.18
pEC50 (Plasmodium falciparum [3]): 7.34
pEC50 (Plasmodium falciparum [4]): 7.28
pEC50 (Plasmodium falciparum [5]): 7.85

CC(=O)OCCC1(C)CC2(CCCC(C)C2)OO1 (mixture of isomers)
pEC50 (Plasmodium falciparum [1]): 6.96
pEC50 (Plasmodium falciparum [2]): 6.94
Activity (Heme): inactive

COCCC1(C)CC2(CCCC(C)C2)OO1 (mixture of isomers)
pEC50 (Plasmodium falciparum [1]): 7.16
pEC50 (Plasmodium falciparum [2]): 7.21
Activity (Heme): inactive

C1CCC2(CC1)OOC1(O2)C2CC3CC(C2)CC1C3 (stereo unspecified)
pEC50 (Plasmodium falciparum [6]): 8.44
pEC50 (Plasmodium falciparum [7]): 8.28

C1CCC2(CC1)CC1(OO2)C2CC3CC(C2)CC1C3 (stereo unspecified)
Activity (Heme): inactive
pEC50 (Plasmodium falciparum [6]): < 5.70
pEC50 (Plasmodium falciparum [7]): < 5.70

CC1(CCOCc2ccccc2)CC2(CCC(C(C)(C)C)CC2)OO1 (mixture of isomers)
pEC50 (Plasmodium falciparum [1]): 7.07
pEC50 (Plasmodium falciparum [2]): 7.13
Activity (Heme): inactive
